# Patent US20100009920A1, “TTK AS TUMOR MARKER AND THERAPEUTIC TARGET FOR LUNG CANCER” (priority 2006, published 2010)
# Entries after “also recorded” stand apart in the source; their conditions may differ. Read-outs that look alike come from different tables or passages of the source.
# What was measured:
# Type in all cases: cell-based, human
# A549 cells = assay: Microscopic observation of cell morphology (phase contrast images); conditions: non-treated cells as control
# Experimental: (§1) The oligo-siRNAs (Dharmacon, Inc., Lafayette, Colo.) ([…]) were transfected into appropriate lung-cancer cell lines using 30 micro-1 of Lipofectamine 2000 (Invitrogen, Carlsbad, Calif.) following the manufacturer's protocol. The ribonucleotide sequences corresponding to following sequences were used as the oligo-siRNA.
# The endogenous association between TTK and EGFR in lung cancer cells was also investigated by immunoprecipitaion experiment using extracts from A549 cells, and the interaction between these two proteins regardless the EGF-stimulation was detected (FIG. 4b). To further examine the relevance of TTK to EGFR signaling, TTK or EGFR function in A549 cells were suppressed and cell morphology was microscopically observed.
# PLCγ1 and p44/42 MAPK = assay: Western blot of PLCγ and p44/42 MAPK in A549 cells after RNAi
# Experimental: (§2) Cells were lysed with RIPA buffer [50 mM Tris-HCl (pH 8.0), 150 mM NaCl, 1% NP-40, 0.5% deoxychorate-Na, 0.1% SDS] containing Protease Inhibitor Cocktail Set III (CALBIOCHEM) and phosphatase inhibitor (1 mM sodium fluoride, 1 mM sodium orthovanadate, 2 mM imidazole, 4 mM sodium tartrate). Cytoplasmic and nuclear extractions were isolated by NE-PER Nuclear and Cytoplasmic Extraction Reagents (PIERCE). Protein samples were separated by SDS-polyacrylamide gels and electroblotted onto Hybond-ECL nitrocellulose membranes (GE Healthcare Bio-sciences). Blots were incubated with a mouse monoclonal anti-Mps1 (TTK) antibody (Upstate), rabbit polyclonal anti-phospho-EGFR antibodies (Tyr-845, Tyr-992, Tyr-1045, Tyr-1068, […], and Tyr-1173; Cell Signaling Technology, Inc.), a rabbit polyclonal anti-EGFR antibody (Cell Signaling Technology, Inc.), a rabbit polyclonal anti-phospho-PLCgamma1 (Tyr-771) antibody (Cell Signaling Technology, Inc.), a rabbit polyclonal anti-PLCgamma1 antibody (Cell Signaling Technology, Inc.), a rabbit polyclonal anti-phospho-p44/42 MAPK (Thr202/Tyr204) antibody (Cell Signaling Technology, Inc.), a rabbit polyclonal anti-p44/42 MAPK antibody (Cell Signaling Technology, Inc.), a mouse monoclonal anti-Flag antibody (SIGMA) or a mouse monoclonal anti-beta-actin antibody (SIGMA). Anti-phospho-EGFR (Ser-967) antibodies were raised against Ser-967-phosphorylated synthetic peptides and purified with the phosphopeptide column. Antigen-antibody complexes were detected using secondary antibodies conjugated to horseradish peroxidase (GE Healthcare Bio-sciences). Protein bands were visualized by ECL Western Blotting Detection Reagents (GE Healthcare Bio-sciences).
# as §1
# TTK = TTK protein level in A549 cells after RNAi (western blot)
# Experimental: (§3) Cells were lysed with RIPA buffer [50 mM Tris-HCl (pH 8.0), 150 mM NaCl, 1% NP-40, 0.5% deoxychorate-Na, 0.1% SDS] containing Protease Inhibitor Cocktail Set III (CALBIOCHEM) and phosphatase inhibitor (1 mM sodium fluoride, 1 mM sodium orthovanadate, 2 mM imidazole, 4 mM sodium tartrate). Cytoplasmic and nuclear extractions were isolated by NE-PER Nuclear and Cytoplasmic Extraction Reagents (PIERCE). Protein samples were separated by SDS-polyacrylamide gels and electroblotted onto Hybond-ECL nitrocellulose membranes (GE Healthcare Bio-sciences). […] Antigen-antibody complexes were detected using secondary antibodies conjugated to horseradish peroxidase (GE Healthcare Bio-sciences). […]
# phospho-EGFR (Tyr-992) = assay: Phospho-EGFR (Tyr-992) level in A549 cells after RNAi (immunofluorescence, western blot); conditions: for phosphorylation level of EGFR Tyr-992, western blot: A549 cells; for phospho-EGFR (Tyr-992), immunofluorescence: serum-starved A549 cells
# Experimental: as §2
# Cultured cells were fixed with 4% paraformaldehyde solution for 15 min at 37° C., or 10% Trichloro acetic acid for 15 min on ice. Fixed cells were incubated in PBS(−) containing 0.1% Triton X-100 for 10 min and subsequently washed with PBS(−). Prior to the primary antibody reaction, fixed cells were covered with CAS-BLOCK (ZYMED Laboratories Inc.) for 10 min to block non-specific-antibody binding. Then the cells were incubated with a mouse monoclonal anti-Mps1 (TTK) antibody (Upstate) and a rabbit polyclonal anti-phospho-EGFR (Tyr-992) (Cell Signaling Technology, Inc.), or a rabbit polyclonal anti-phospho-p44/42 MAPK (Thr202/Tyr204) antibody (Cell Signaling Technology, Inc.), or a mouse monoclonal anti-Flag antibody (SIGMA). Antibodies were stained with an anti-mouse secondary antibody conjugated to Alexa Fluor 488 (Molecular Probes) and an anti-rabbit secondary antibody conjugated to Alexa Fluor 594 (Molecular Probes). […] Images were viewed and assessed using a confocal microscope at wavelengths of 488, 594 nm (TCS SP2 AOBS: Leica Microsystems). […]
# phospho-EGFR (Ser-967) = assay: Phospho-EGFR (Ser-967) level in A549 cells after RNAi (immunofluorescence)
# Experimental: as §3
# Cultured cells were fixed with 4% paraformaldehyde solution for 15 min at 37° C., or 10% Trichloro acetic acid for 15 min on ice. […] Images were viewed and assessed using a confocal microscope at wavelengths of 488, 594 nm (TCS SP2 AOBS: Leica Microsystems). […]
# [1] = listed as RNAi (oligo) against TTK
sequence,measurement,setting,value
"CAAGATGTGTTAAAGTGTTTT (listed as DNA, chemistry not given here) [RNAi-TTK (oligo)]",cell morphology,A549 cells,became much larger with multiple nuclei
same,amount of PLCγ protein,PLCγ1 and p44/42 MAPK,did not affect
same,amount of p44/42 MAPK protein,PLCγ1 and p44/42 MAPK,did not affect
same,phospho-PLCγ (Tyr-771),PLCγ1 and p44/42 MAPK,decrease
same,phosphorylation of p44/42 MAPK (Thr202/Tyr204),PLCγ1 and p44/42 MAPK,decrease
same,phospho-PLCγ (Tyr-771),PLCγ1 and p44/42 MAPK; [1],reduced
same,phosphorylation of p44/42 MAPK (Thr202/Tyr204),PLCγ1 and p44/42 MAPK; [1],reduced
same,TTK protein,TTK,Reduction; also recorded: suppression
same,"phosphorylation level of EGFR Tyr-992, western blot",phospho-EGFR (Tyr-992),decreased
same,"phosphorylation level of EGFR Tyr-992, western blot",phospho-EGFR (Tyr-992); [1],reduced
same,"phospho-EGFR (Tyr-992), immunofluorescence",phospho-EGFR (Tyr-992),significantly decreased
same,"phospho-EGFR (Tyr-992), immunofluorescence",phospho-EGFR (Tyr-992); listed as si-TTK,reduced
same,"levels of phospho-EGFR Ser-967, immunofluorescence",phospho-EGFR (Ser-967),decreased significantly
same,"levels of phospho-EGFR Ser-967, immunofluorescence",phospho-EGFR (Ser-967); [1],reduced
